Target: T1, Human recombinant MetAP2 (Homo sapiens, UniProt P50579)
T1 construct: made in house; host or cells: Sf9 insect cells
Assay: inhibition of recombinant human MetAP2 activity (MAS substrate, amino acid oxidase/Amplex red fluorescence)
Type: biochemical
Conditions: manganese enzyme, 30 minutes at 25° C., pH 7.5, 0.75 mM MAS substrate, 1% DMSO
Experimental: Compounds are tested for their capacity to inhibit recombinant human MetAP2 activity using the following assay.
Human recombinant MetAP2 expressed in Sf9 cells followed by affinity purification and EDTA treatment to remove endogenous active site cation was dialysed against MnCl2 to produce the manganese enzyme used in the assay. The assay was carried out for 30 minutes at 25° C. in 50 mM HEPES buffer containing 100 mM NaCl, pH 7.5 the presence of 0.75 mM Methionine-Alanine-Serine (MAS) substrate and 50 μg/ml amino acid oxidase using a dilution of purified MetAP2 giving >3-fold signal:noise. Cleavage of the substrate by MetAP2 and oxidation of free methionine by amino acid oxidase was detected and quantified using fluorescence generated by Amplex red (10-acetyl-3,7-dihydroxyphenoxazine) in combination with horseradish peroxidase which detects H2O2 released during the oxidation step. The fluorescent signal was detected using a multiwell fluorimeter. Compounds were diluted in DMSO prior to addition to assay buffer, the final DMSO concentration in the assay being 1%.
The IC50 is defined as the concentration at which a given compound achieves 50% inhibition of control. IC50 values are calculated using the XLfit software package (version 2.0.5).

T1 sequence (P50579 whole entry): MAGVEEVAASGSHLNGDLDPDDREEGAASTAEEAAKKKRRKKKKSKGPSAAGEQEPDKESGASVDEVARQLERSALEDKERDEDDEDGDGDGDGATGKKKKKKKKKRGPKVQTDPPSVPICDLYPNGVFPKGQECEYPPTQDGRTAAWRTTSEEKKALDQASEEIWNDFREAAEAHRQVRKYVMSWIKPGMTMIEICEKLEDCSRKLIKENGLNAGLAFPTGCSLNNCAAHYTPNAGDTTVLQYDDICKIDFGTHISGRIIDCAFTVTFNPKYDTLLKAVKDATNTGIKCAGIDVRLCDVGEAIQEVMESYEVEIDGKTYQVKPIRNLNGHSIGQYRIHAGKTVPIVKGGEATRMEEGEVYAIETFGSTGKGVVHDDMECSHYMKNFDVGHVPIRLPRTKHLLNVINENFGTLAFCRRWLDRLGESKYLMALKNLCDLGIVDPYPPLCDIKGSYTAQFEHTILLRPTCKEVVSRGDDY

IC50 [nM]	SMILES	also measured
< 50	CCN1CCC/C(=C\c2cc(F)ccc2S(=O)(=O)Nc2ccc3c(c2C(=O)O)OC[C@@H]2C[C@H]32)C1 (single isomer, unassigned) [Example 12]	–
50 to 500	CCN1CCC/C(=C/c2cc(F)ccc2S(=O)(=O)Nc2ccc3c(c2C(=O)O)OC[C@@H]2C[C@H]32)C1 (single isomer, unassigned) [Example 13]	–
< 50	CCN1CCCC(Cc2cc(F)ccc2S(=O)(=O)Nc2ccc3c(c2C(=O)O)OCC2CC32)C1 (single isomer, unassigned) [Example 14]	–
< 50	CCN1CCCC(Cc2cc(F)ccc2S(=O)(=O)Nc2ccc3c(c2C(=O)O)OCC2CC32)C1 (single isomer, unassigned) [Example 15]	–
< 50	CCN1[C@@H]2CC[C@H]1C[C@@H](Cc1cc(F)ccc1S(=O)(=O)Nc1ccc3c(c1C(=O)O)OC[C@@H]1C[C@H]31)C2 (single isomer, unassigned) [Example 18]	–
< 50	CCN1[C@@H]2CC[C@H]1C[C@H](Cc1cc(F)ccc1S(=O)(=O)Nc1ccc3c(c1C(=O)O)OC[C@@H]1C[C@H]31)C2 (single isomer, unassigned) [Example 19]	–
< 50	CCN1CCC(NC(=O)Cc2cc(F)ccc2S(=O)(=O)Nc2ccc3c(c2C(=O)O)OC[C@@H]2C[C@H]32)C1 (stereo in doubt) [Example 30, (1aR,7bS)-5-{2-[((S)-1-Ethylpyrrolidin-3-ylcarbamoyl)methyl]-4-fluoro-benzenesulfonylamino}-1,1a,2,7b-tetrahydrocyclopropa[c]chromene-4-carboxylic acid]	–
50 to 500	CCN(CC)CC1CC1c1cc(F)ccc1S(=O)(=O)Nc1ccc2c(c1C(=O)O)OC[C@@H]1C[C@H]21 (stereo partly drawn) [Example 1, (1aR,7bS)-5-[2-(2-Diethylaminomethylcyclopropyl)-4-fluorobenzenesulfonyl-amino]-1,1a,2,7b-tetrahydrocyclopropa[c]chromene-4-carboxylic acid]	–
–	CCN(CC)CC1CC1c1cc(F)ccc1S(=O)(=O)Nc1ccc2c(c1C(=O)O)OC[C@@H]1C[C@H]21 (stereo partly shown) [Example 2]	IC50 (listed as First eluting enantiomer of (1aR,7bS)-5-[2-(2-diethylamino-methylcyclopropyl)-4-): < 50 nM
–	CCN(CC)CC1CC1c1cc(F)ccc1S(=O)(=O)Nc1ccc2c(c1C(=O)O)OC[C@@H]1C[C@H]21 (stereo partly shown) [Example 3]	IC50 (listed as Second eluting enantiomer of (1aR,7bS)-5-[2-(2-diethylamino-methylcyclopropyl)-4): 50 to 500 nM
50 to 500	O=C(O)c1c(NS(=O)(=O)c2ccc(F)cc2C2CC2CN2CCCC2)ccc2c1OC[C@@H]1C[C@H]21 (stereo partly drawn) [Example 4, (1aR,7bS)-5-{4-Fluoro-2-[2-(pyrrolidin-1-ylmethyl)cyclopropyl]benzene-sulfonylamino}-1,1a,2,7b-tetrahydrocyclopropa[c]chromene-4-carboxylic acid]	–
< 50	CCN(CC)CC(C)(C)Cc1cc(F)ccc1S(=O)(=O)Nc1ccc2c(c1C(=O)O)OC[C@@H]1C[C@H]21 [Example 5, (1aR,7bS)-5-[2-(3-Diethylamino-2,2-dimethylpropyl)-4-fluorobenzenesulfonyl-amino]-1,1a,2,7b-tetrahydrocyclopropa[c]chromene-4-carboxylic acid]	–
< 50	O=C(O)c1c(NS(=O)(=O)c2ccc(F)cc2C[C@@H]2CCNC2)ccc2c1OC[C@@H]1C[C@H]21 [Example 6, (1aR,7bS)-5-[4-Fluoro-2-((R)-pyrrolidin-3-ylmethyl)benzenesulfonylamino]-1,1a,2,7b-tetrahydrocyclopropa[c]chromene-4-carboxylic acid]	–
< 50	O=C(O)c1c(NS(=O)(=O)c2ccc(F)cc2C[C@H]2CCNC2)ccc2c1OC[C@@H]1C[C@H]21 [Example 7, (1aR,7bS)-5-[4-Fluoro-2-((S)-pyrrolidin-3-ylmethyl)benzenesulfonylamino]-1,1a,2,7b-tetrahydrocyclopropa[c]chromene-4-carboxylic acid]	–
< 50	CC(C)(O)CN1CC[C@@H](Cc2cc(F)ccc2S(=O)(=O)Nc2ccc3c(c2C(=O)O)OC[C@@H]2C[C@H]32)C1 [Example 8, (1aR,7bS)-5-{4-Fluoro-2-[(R)-1-(2-hydroxy-2-methylpropyl)pyrrolidin-3-ylmethyl]benzenesulfonylamino}-1,1a,2,7b-tetrahydrocyclopropa[c]chromene-4-carboxylic acid]	–
< 50	CCN1CCC[C@@H]1CCc1cc(F)ccc1S(=O)(=O)Nc1ccc2c(c1C(=O)O)OC[C@@H]1C[C@H]21 [Example 16, (1aR,7bS)-5-{2-[2-((S)-1-Ethylpyrrolidin-2-yl)ethyl]-4-fluorobenzene-sulfonylamino}-1,1a,2,7b-tetrahydrocyclopropa[c]chromene-4-carboxylic acid]	–
< 50	O=C(O)c1c(NS(=O)(=O)c2ccc(F)cc2C[C@@H]2CCN(CCO)C2)ccc2c1OC[C@@H]1C[C@H]21 [Example 17, (1aR,7bS)-5-{4-Fluoro-2-[(R)-1-(2-hydroxyethyl)pyrrolidin-3-ylmethyl]-benzenesulfonylamino}-1,1a,2,7b-tetrahydrocyclopropa[c]chromene-4-carboxylic acid]	–
< 50	CC1(O)CCN(C/C=C\c2cc(F)ccc2S(=O)(=O)Nc2ccc3c(c2C(=O)O)OC[C@@H]2C[C@H]32)C1 (stereo partly drawn) [Example 20, (1aR,7bS)-5-{4-Fluoro-2-[(Z)-3-(3-hydroxy-3-methylpyrrolidin-1-yl)prop-1-enyl]benzenesulfonylamino}-1,1a,2,7b-tetrahydrocyclopropa[c]chromene-4-carboxylic acid]	–
50 to 500	O=C(O)c1c(NS(=O)(=O)c2ccc(F)cc2/C=C\CN2CCC(O)CC2)ccc2c1OC[C@@H]1C[C@H]21 [Example 21, (1aR,7bS)-5{4-Fluoro-2-[(Z)-3-(4-hydroxypiperidin-1-yl)prop-1-enyl]benzenesulfonylamino}-1,1a,2,7b-tetrahydrocyclopropa[c]chromene-4-carboxylic acid]	–
50 to 500	CC1(O)CCN(C/C=C\c2cc(F)ccc2S(=O)(=O)Nc2ccc3c(c2C(=O)O)OC[C@@H]2C[C@H]32)CC1 [Example 22, (1aR,7bS)-5-{4-Fluoro-2-[(Z)-3-(4-hydroxy-4-methylpiperidin-1-yl)prop-1-enyl]benzenesulfonylamino}-1,1a,2,7b-tetrahydrocyclopropa[c]chromene-4-carboxylic acid]	–
50 to 500	CCN1CC2C(C1)C2c1cc(F)ccc1S(=O)(=O)Nc1ccc2c(c1C(=O)O)OC[C@@H]1C[C@H]21 (stereo partly drawn) [Example 23, (1aR,7bS)-5-[2-(3-Ethyl-3-azabicyclo[3.1.0]hex-6-yl)-4-fluorobenzene-sulfonylamino]-1,1a,2,7b-tetrahydrocyclopropa[c]chromene-4-carboxylic acid]	–
< 50	O=C(O)c1c(NS(=O)(=O)c2ccc(F)cc2/C=C\[C@@H]2CCCN2)ccc2c1OC[C@@H]1C[C@H]21 [Example 24, (1aR,7bS)-5-{4-Fluoro-2-[(Z)-2-((S)-pyrrolidin-2-yl)ethenyl]benzenesulfonyl-amino}-1,1a,2,7b-tetrahydrocyclopropa[c]chromene-4-carboxylic acid]	–
< 50	O=C(O)c1c(NS(=O)(=O)c2ccc(F)cc2/C=C\CN2CC[C@H](CO)C2)ccc2c1OC[C@@H]1C[C@H]21 [Example 25, (1aR,7bS)-5-{4-Fluoro-2-[(Z)-3-((S)-3-hydroxymethylpyrrolidin-1-yl)prop-1-enyl]benzenesulfonylamino}-1,1a,2,7b-tetrahydrocyclopropa[c]chromene-4-carboxylic acid]	–
< 50	O=C(O)c1c(NS(=O)(=O)c2ccc(F)cc2/C=C\CN2CC[C@@H](CO)C2)ccc2c1OC[C@@H]1C[C@H]21 [Example 26, (1aR,7bS)-5-{4-Fluoro-2-[(Z)-3-((R)-3-hydroxymethylpyrrolidin-1-yl)prop-1-enyl]benzenesulfonylamino}-1,1a,2,7b-tetrahydrocyclopropa[c]chromene-4-carboxylic acid]	–
< 50	CC(C)(O)[C@H]1CCN(C/C=C\c2cc(F)ccc2S(=O)(=O)Nc2ccc3c(c2C(=O)O)OC[C@@H]2C[C@H]32)C1 [Example 27, (1aR,7bS)-5-(4-Fluoro-2-{(Z)-3-[(S)-3-(2-hydroxypropan-2-yl)pyrrolidin-1-yl]prop-1-enyl}benzenesulfonylamino)-1,1a,2,7b-tetrahydrocyclopropa[c]chromene-4-carboxylic acid]	–

SMILES	IC50 [nM]	also measured
O=C(O)c1c(NS(=O)(=O)c2ccc(F)cc2/C=C2\CN3CCC2CC3)ccc2c1OC[C@@H]1C[C@H]21 (single isomer, unassigned) [Example 10]	< 50	–
O=C(O)c1c(NS(=O)(=O)c2ccc(F)cc2/C=C2/CN3CCC2CC3)ccc2c1OC[C@@H]1C[C@H]21 (single isomer, unassigned) [Example 11]	< 50	–
O=C(O)c1c(NS(=O)(=O)c2ccc(F)cc2CC2CN3CCC2CC3)ccc2c1OC[C@@H]1C[C@H]21 (stereo partly drawn) [Example 9, (1aR,7bS)-5-[2-(1-Azabicyclo[2.2.2]oct-3-ylmethyl)-4-fluorobenzenesulfonyl-amino]-1,1a,2,7b-tetrahydrocyclopropa[c]chromene-4-carboxylic acid]	< 50	–

Reference: US9868717B2, “Tricyclic sulphonamide compounds and methods of making and using same” (Zafgen, Inc., priority 2012, dated 2018)
